Assay [1] has as its system Glomerella lagenarium (Colletotrichum lagenarium). The experiment in a line: Fungicidal activity against Glomerella lagenarium (Colletotrichum lagenarium) liquid culture / cucumber / preventative (anthracnose). It counts as cell-based. Conditions: Colletotrichum orbiculare; 20 ppm in the applied formulation; liquid culture (PDB), inhibition of growth measured photometrically 3 to 4 days after application; compared to untreated; read-out: disease control. On the procedure: Mycelia fragments or conidia suspensions of a fungus prepared either freshly from liquid cultures of the fungus or from cryogenic storage, are directly mixed into nutrient broth. DMSO solutions of the test compound (max. 10 mg/mL) are diluted with 0.025% Tween20 by a factor of 50 and 10 μL of this solution is pipetted into a microtiter plate (96-well format). The nutrient broth containing the fungal spores/mycelia fragments is then added to give an end concentration of the tested compound. The test plates are incubated in the dark at 24° C. and 96% relative humidity. The inhibition of fungal growth is determined photometrically after 2 to 7 days, depending on the pathosystem, and percent antifungal activity relative to the untreated check is calculated. Conidia of the fungus from cryogenic storage are directly mixed into nutrient broth (PDB—potato dextrose broth). After placing a (DMSO) solution of test compound into a microtiter plate (96-well format), the nutrient broth containing the fungal spores is added. The test plates are incubated at 24° C. and the inhibition of growth is measured photometrically 3 to 4 days after application. The following compounds at 20 ppm in the applied formulation give at least 80% disease control in this test when compared to untreated control under the same conditions, which show extensive disease development.

Assay [2] relates to Puccinia recondita f. Sp. Tritici. Kind of assay: Fungicidal activity against Puccinia recondita f. sp. tritici / wheat / leaf disc preventative (brown rust). It counts as in vivo. Conditions: foliar, 200 ppm in the applied formulation, wheat leaf segments cv. Kanzler, preventative (inoculated 1 day after application), compared to untreated, read-out: disease control. On the procedure: Leaf disks or leaf segments of various plant species are cut from plants grown in a greenhouse. The cut leaf disks or segments are placed in multiwell plates (24-well format) onto water agar. The leaf disks are sprayed with a test solution before (preventative) or after (curative) inoculation. Compounds to be tested are prepared as DMSO solutions (max. 10 mg/mL) which are diluted to the appropriate concentration with 0.025% Tween20 just before spraying. The inoculated leaf disks or segments are incubated under defined conditions (temperature, relative humidity, light, etc.) according to the respective test system. A single evaluation of disease level is carried out 3 to 14 days after inoculation, depending on the pathosystem. Percent disease control relative to the untreated check leaf disks or segments is then calculated. Wheat leaf segments cv. Kanzler were placed on agar in multiwell plates (24-well format) and sprayed with the formulated test compound diluted in water. The leaf disks were inoculated with a spore suspension of the fungus 1 day after application. The inoculated leaf segments were incubated at 19° C. and 75% relative humidity (rh) under a light regime of 12 hours light/12 hours darkness in a climate cabinet and the activity of a compound was assessed as percent disease control compared to untreated when an appropriate level of disease damage appears in untreated check leaf segments (7 to 9 days after application). The following compounds at 200 ppm in the applied formulation give at least 80% disease control in this test when compared to untreated control leaf disks under the same conditions, which show extensive disease development.

For `O=C1CCCCN1Cc1cc(-c2noc(C(F)(F)F)n2)cs1` [Compound 1.31, 1-[[4-[5-(trifluoromethyl)-1,2,4-oxadiazol-3-yl]-2-thienyl]methyl]piperidin-2-one], the inhibition of growth at 20 ppm in assay [1] is at least 80%.

As to `CC(c1ccc(-c2noc(C(F)(F)F)n2)s1)n1cc(C(=O)NC2CCCCC2)cn1` (stereo not shown) [Compound 1.71, N-cyclohexyl-1-[1-[5-[5-(trifluoromethyl)-1,2,4-oxadiazol-3-yl]-2-thienyl]ethyl]pyrazole-4-carboxamide], the pest or weed control at 200 ppm in assay [2] is at least 80%. For the same compound, the inhibition of growth at 20 ppm in assay [1] was at least 80%.

In the case of `CC(C)NC(=O)c1ccnn1Cc1ccc(-c2noc(C(F)(F)F)n2)s1` [Compound 1.157, N-isopropyl-2-[[5-[5-(trifluoromethyl)-1,2,4-oxadiazol-3-yl]-2-thienyl]methyl]pyrazole-3-carboxamide], the pest or weed control at 200 ppm in assay [2] was at least 80%. In addition, the inhibition of growth at 20 ppm in assay [1] was at least 80%.

For the compound `O=C(NC1CCCCC1)c1ncn(Cc2ccc(-c3noc(C(F)(F)F)n3)s2)n1` [Compound 1.149, N-cyclohexyl-1-[[5-[5-(trifluoromethyl)-1,2,4-oxadiazol-3-yl]-2-thienyl]methyl]-1,2,4-triazole-3-carboxamide], in assay [2], the pest or weed control at 200 ppm is at least 80%. The inhibition of growth at 20 ppm in assay [1] was at least 80%.

As for `FC(F)(F)c1nc(-c2ccc(CN3CCOCC3)s2)no1` [Compound 1.18, 4-[[5-[5-(trifluoromethyl)-1,2,4-oxadiazol-3-yl]-2-thienyl]methyl]morpholine], in assay [2], the pest or weed control at 200 ppm is at least 80%. Further, in assay [1], the inhibition of growth at 20 ppm is at least 80%.

For `CC1(C)CC(=O)N(Cc2ccc(-c3noc(C(F)(F)F)n3)s2)O1` [Compound 1.3, 5,5-dimethyl-2-[[5-[5-(trifluoromethyl)-1,2,4-oxadiazol-3-yl]-2-thienyl]methyl] isoxazolidin-3-one], in assay [2], the pest or weed control at 200 ppm is at least 80%. Further, the inhibition of growth at 20 ppm in assay [1] is at least 80%.

`O=C(NC1CCCCC1)c1ccnn1Cc1ccc(-c2noc(C(F)(F)F)n2)s1` [Compound 1.159, N-cyclohexyl-2-[[5-[5-(trifluoromethyl)-1,2,4-oxadiazol-3-yl]-2-thienyl]methyl]pyrazole-3-carboxamide]: in assay [2], the pest or weed control at 200 ppm was at least 80%. Besides, in assay [1], the inhibition of growth at 20 ppm was at least 80%.

For `FC(F)(F)c1nc(-c2ccc(CN3CCC3)s2)no1` [Compound 1.20, 3-[5-(azetidin-1-ylmethyl)-2-thienyl]-5-(trifluoromethyl)-1,2,4-oxadiazole], the inhibition of growth at 20 ppm in assay [1] is at least 80%.

As for `FC(F)(F)c1nc(-c2ccc(CN3CCCC3)s2)no1` [Compound 1.15, 3-[5-(pyrrolidin-1-ylmethyl)-2-thienyl]-5-(trifluoromethyl)-1,2,4-oxadiazole], the inhibition of growth at 20 ppm in assay [1] is at least 80%.

Regarding `O=C(NCc1ccccc1)c1ccnn1Cc1ccc(-c2noc(C(F)(F)F)n2)s1` [Compound 1.163, N-benzyl-2-[[5-[5-(trifluoromethyl)-1,2,4-oxadiazol-3-yl]-2-thienyl]methyl]pyrazole-3-carboxamide], the pest or weed control at 200 ppm in assay [2] was at least 80%. Moreover, the inhibition of growth at 20 ppm in assay [1] is at least 80%.

As to `Cc1cnn(Cc2ccc(-c3noc(C(F)(F)F)n3)s2)c1` [Compound 1.5, 3-[5-[(4-methylpyrazol-1-yl)methyl]-2-thienyl]-5-(trifluoromethyl)-1,2,4-oxadiazole], the pest or weed control at 200 ppm in assay [2] was at least 80%. Besides, the inhibition of growth at 20 ppm in assay [1] was at least 80%.

As to `Fc1cnn(Cc2ccc(-c3noc(C(F)(F)F)n3)s2)c1` [Compound 1.12, 3-[5-[(4-fluoropyrazol-1-yl)methyl]-2-thienyl]-5-(trifluoromethyl)-1,2,4-oxadiazole], in assay [2], the pest or weed control at 200 ppm is at least 80%. Also, the inhibition of growth at 20 ppm in assay [1] is at least 80%.

For `CC(C)(C)CNC(=O)c1ccnn1Cc1ccc(-c2noc(C(F)(F)F)n2)s1` [Compound 1.156, N-(2,2-dimethylpropyl)-2-[[5-[5-(trifluoromethyl)-1,2,4-oxadiazol-3-yl]-2-thienyl]methyl]pyrazole-3-carboxamide], the pest or weed control at 200 ppm in assay [2] was at least 80%. The inhibition of growth at 20 ppm in assay [1] was at least 80%.

Turning to `Cc1cccc(=O)n1Cc1cc(-c2noc(C(F)(F)F)n2)cs1` [Compound 1.27, 6-methyl-1-[[4-[5-(trifluoromethyl)-1,2,4-oxadiazol-3-yl]-2-thienyl]methyl]pyridin-2-one], in assay [1], the inhibition of growth at 20 ppm was at least 80%.

In the case of `CC(C)(C)NC(=O)c1ccnn1Cc1ccc(-c2noc(C(F)(F)F)n2)s1` [Compound 1.167, N-tert-butyl-2-[[5-[5-(trifluoromethyl)-1,2,4-oxadiazol-3-yl]-2-thienyl]methyl]pyrazole-3-carboxamide], in assay [2], the pest or weed control at 200 ppm was at least 80%. In addition, the inhibition of growth at 20 ppm in assay [1] is at least 80%.

With `O=C(Nc1ccccc1)c1cnn(Cc2ccc(-c3noc(C(F)(F)F)n3)s2)c1` [Compound 1.115, N-phenyl-1-[[5-[5-(trifluoromethyl)-1,2,4-oxadiazol-3-yl]-2-thienyl]methyl]pyrazole-4-carboxamide], the pest or weed control at 200 ppm in assay [2] was at least 80%. For the same compound, the inhibition of growth at 20 ppm in assay [1] is at least 80%.

Consider `CCC(C)NC(=O)c1ccnn1Cc1ccc(-c2noc(C(F)(F)F)n2)s1` (stereo not shown) [Compound 1.155, N-sec-butyl-2-[[5-[5-(trifluoromethyl)-1,2,4-oxadiazol-3-yl]-2-thienyl]methyl]pyrazole-3-carboxamide], for which the pest or weed control at 200 ppm in assay [2] was at least 80%. The inhibition of growth at 20 ppm in assay [1] is at least 80%.

With `FC(F)(F)c1nc(-c2ccc(Cn3nnnc3-c3ccccc3Br)s2)no1` [Compound 1.10, 3-[5-[[5-(2-bromophenyl)tetrazol-1-yl]methyl]-2-thienyl]-5-(trifluoromethyl)-1,2,4-oxadiazole], in assay [2], the pest or weed control at 200 ppm was at least 80%. For the same compound, in assay [1], the inhibition of growth at 20 ppm was at least 80%.

As to `O=C(NC1CCCC1)c1ccnn1Cc1ccc(-c2noc(C(F)(F)F)n2)s1` [Compound 1.165, N-cyclopentyl-2-[[5-[5-(trifluoromethyl)-1,2,4-oxadiazol-3-yl]-2-thienyl]methyl]pyrazole-3-carboxamide], in assay [2], the pest or weed control at 200 ppm was at least 80%. Besides, in assay [1], the inhibition of growth at 20 ppm was at least 80%.

For the compound `CC1(C)CC(=O)N(Cc2cc(-c3noc(C(F)(F)F)n3)cs2)O1` [Compound 1.28, 5,5-dimethyl-2-[[4-[5-(trifluoromethyl)-1,2,4-oxadiazol-3-yl]-2-thienyl]methyl] isoxazolidin-3-one], the inhibition of growth at 20 ppm in assay [1] was at least 80%.

As for `FC(F)(F)c1nc(-c2ccc(Cn3cccn3)s2)no1` [Compound 1.7, 3-[5-(pyrazol-1-ylmethyl)-2-thienyl]-5-(trifluoromethyl)-1,2,4-oxadiazole], the pest or weed control at 200 ppm in assay [2] is at least 80%. In assay [1], the inhibition of growth at 20 ppm was at least 80%.

In the case of `O=S1(=O)CCCN1Cc1cc(-c2noc(C(F)(F)F)n2)cs1` [Compound 1.29, 2-[[4-[5-(trifluoromethyl)-1,2,4-oxadiazol-3-yl]-2-thienyl]methyl]-1,2-thiazolidine 1,1-dioxide], the inhibition of growth at 20 ppm in assay [1] is at least 80%.

Take `O=C(Nc1ccccc1)c1ccnn1Cc1ccc(-c2noc(C(F)(F)F)n2)s1` [Compound 1.162, N-phenyl-2-[[5-[5-(trifluoromethyl)-1,2,4-oxadiazol-3-yl]-2-thienyl]methyl]pyrazole-3-carboxamide]: in assay [2], the pest or weed control at 200 ppm was at least 80%. For the same compound, the inhibition of growth at 20 ppm in assay [1] is at least 80%.

These data come from patent publication US11358957B2, “Microbiocidal oxadiazole derivatives” (SYNGENTA PARTICIPATIONS AG, priority 2017, dated 2022).
